This test has as its target T1, hPRDM9 (amino acids 195-385) (Homo sapiens, UniProt Q9NQV7).
T1 construct: 1.25 nM hPRDM9 (amino acids 195-385)
T1 sequence (Q9NQV7 195-385): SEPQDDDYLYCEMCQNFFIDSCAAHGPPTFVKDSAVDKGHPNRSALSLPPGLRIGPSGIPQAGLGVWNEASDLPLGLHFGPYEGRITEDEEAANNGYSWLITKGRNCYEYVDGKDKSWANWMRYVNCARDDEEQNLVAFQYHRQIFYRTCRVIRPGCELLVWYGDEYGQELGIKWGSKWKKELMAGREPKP
The test is described as follows: PRDM9 biochemical assay (radiometric, 3[H] methyl transfer from SAM to biotinylated histone H3 peptide). Conditions: 1 nM hPRDM9, 1 μM biotinylated H3(1-25)K4 peptide, 5 μM 3[H]-SAM, 55 μM un-labeled SAM, 25° C., 30 minutes. How it is done: The PRDM9 biochemical assay was carried out using a radiometric format involving the transfer of ^3[H] methyl group from S-adenosyl methionine (SAM) to a biotinylated histone H3 peptide (H3(1-25)K4). 10 mM compounds in DMSO were diluted 20 fold in assay buffer (10 mM Tris-HCl, pH 8.5, 10 mM DTT, and 0.01% Triton X-100) before adding […] to a well in a 384 well polypropylene microplate plate and adding 8 μl of reaction mix (1.25 nM hPRDM9 (amino acids 195-385), 1.25 μM biotinylated H3 peptide in assay buffer). The ^3[H]-SAM and cold SAM stock solutions were diluted to 50 μM and 550 μM respectively in assay buffer before aliquoting 1 μl of 50 μM ^3[H]-SAM, 550 μM SAM into each well to initiate the reaction. The assay was performed at 25° C. at the final concentrations of 1 nM hPRDM9, 1 μM peptide, 5 μM ^3[H]-SAM, and 55 μM un-labeled SAM in assay buffer. The reaction was quenched after 30 minutes by adding 25 μl 7.5 M Guanidine-HCl. Quenched reactions were transferred to streptavidin coated Flashplates, diluted two fold in assay buffer, incubated for 1 hour, and read on a Perkin Elmer Topcount instrument. Compound activity was expressed relative to activity of 0.5% (v/v) DMSO treated samples and fit to a four parameter logistic equation to determine IC50 values.

The structures appear in SMILES notation. A value given as a limit tells only on which side of the number the result lay.

Results on 50 molecules are retold here after patent publication US20190374526A1, “Substituted Heterocyclic Compounds as Inhibitors of PRDM9” (Merck Sharp & Dohme Corp., priority 2018, published 2019).

One may read the IC50 as the concentration at which inhibition is half-maximal. Low values mean inhibition by little substance, high ones a need for much substance. With `Cc1cc(N2C[C@H]3CCN(c4nc(-c5cc(Cl)cc(Cl)c5)no4)C[C@H]3C2)ccn1` (racemic) [Compound 36], the IC50 came to 27.8 µM. For `Cc1cc(NCC2CN(c3nc(-c4cc(Cl)cc(Cl)c4)no3)CCC2C)ccn1` (centres unmarked) [Compound 176] the value was 13.6 µM. For `COc1cc(OC)cc(-c2noc(N3CC(C)(C)OC4(CN(c5ccnc(C)c5)C4)C3)n2)c1` [Compound 163] the value was 3.08 µM; for `Cc1cc(N[C@@H]2[C@@H](O)CN(c3nc(-c4cc(Cl)cc(Cl)c4)no3)[C@H]2C)ccn1` (racemic) [Compound 29], 13.3 µM; for `COc1cccc(-c2noc(N3CC4CC4(CNc4ccnc(C)c4)C3)n2)c1` (centres unmarked) [Compound 167], 23 µM. Molecule `Cc1cc(N2CC3(CCCN(c4cc(-c5ccc(F)c(F)c5)n[nH]4)C3)C2)ccn1` [Compound 131, 6-(3-(3,4-difluorophenyl)-1H-pyrazol-5-yl)-2-(2-methylpyridin-4-yl)-2,6-diazaspiro[3.5]nonane] yielded an IC50 of 23.1 µM. The result for `COc1cc(OC)cc(-c2noc(N3CCOC4(CN(c5ccnc(C)c5)C4)C3)n2)c1` [Compound 139] reads 0.393 µM; that for `Cc1cc(N2CC3(CCCN(c4nc(Cc5ccc(F)cc5)no4)C3)C2)ccn1` [Compound 143], not below 50 µM.

For `Cc1cc(N2CC3(CCCN(c4cc(-c5cccc(F)c5F)n[nH]4)C3)C2)ccn1` [Compound 128, 6-(3-(2,3-difluorophenyl)-1H-pyrazol-5-yl)-2-(2-methylpyridin-4-yl)-2,6-diazaspiro[3.5]nonane], half-maximal inhibition (IC50) was put at 23.7 µM. For `Cc1cc(N2CC[C@H](Nc3nc(-c4cc(Cl)cc(Cl)c4)no3)C[C@@H]2C)ccn1` [Compound 217] the value was 29.2 µM. The result for `Cc1cc(NCC2(O)CCN(c3nc(-c4cc(Cl)cc(Cl)c4)no3)C2)ccn1` (centres unmarked) [Compound 37] reads 15.5 µM; that for `Cc1cc(N2CCC(O)(CNc3nc(-c4cc(Cl)cc(Cl)c4)no3)C2)ccn1` (centres unmarked) [Compound 56], 28 µM. For `Cc1cc(N2CCC3C(Nc4nc(-c5cc(Cl)cc(Cl)c5)no4)CCC32)ccn1` (mixture of isomers) [Compound 27] the value was 36.4 µM; for `Cc1cc(N2CC3(CCCN(c4ccnc(-c5cc(Cl)cc(Cl)c5)c4)C3)C2)ccn1` [Compound 132, 6-(2-(3,5-dichlorophenyl)pyridin-4-yl)-2-(2-methylpyridin-4-yl)-2,6-diazaspiro[3.5]nonane], 5.46 µM. `COc1cc(OC)cc(-c2noc(N3CCN(C)C4(CCN(c5ccnc6ccccc56)CC4)C3)n2)c1` [Compound 102]: inhibition was half-maximal at 4.4 µM (IC50). The result for `Cc1cc(N2CC3(CCCN(c4nc(-c5cc(Cl)cc(Cl)c5)no4)C3)C2)cc(C)n1` [Compound 205] reads 0.16 µM; that for `Cc1cc(N2CCC3(CC2)CN(c2nc(-c4cc(OC5CC5)cc(OC5CC5)c4)no2)CCN3C)ccn1` [Compound 95], 0.044 µM. For `Cc1cc(N2CCC(C3CCCN(c4nc(-c5cc(Cl)cc(Cl)c5)no4)C3)CC2)ccn1` (centres unmarked) [Compound 6] the value was 11.3 µM; for `Cc1cc(N2CC(CCNc3nc(-c4cc(Cl)cc(Cl)c4)no3)C2)ccn1` [Compound 52], 29.4 µM. For `COc1cc(OC)cc(-c2noc(N3Cc4ccccc4C4(CCN(c5ccnc(C)c5)CC4)C3)n2)c1` [Compound 180] the value was 0.08 µM; for `Cc1cc(NCCC2CN(c3nc(-c4cc(Cl)cc(Cl)c4)no3)c3ccccc32)ccn1` (centres unmarked) [Compound 175], 3.81 µM; for `COc1cc(OC)cc(-c2nc(N3CCCC4(CCN(c5ccnc(C)c5)CC4)C3)no2)c1` [Compound 85, 5-(3,5-dimethoxyphenyl)-3-(9-(2-methylpyridin-4-yl)-2,9-diazaspiro[5.5]undecan-2-yl)-1,2,4-oxadiazole], 0.08 µM. `Cc1cc(N2CCC3(CCCN(c4nc(-c5cc(Cl)cc(Cl)c5)no4)C3)CC2)ccn1` [Compound 216] registered an IC50 of 0.246 µM. For `COc1cc(OC)cc(-c2nc(N3CCN(C)C4(CCN(c5ccnc(C)c5)CC4)C3)no2)c1` [Compound 90] the value was 0.118 µM; for `Cc1cc(N2CCC3(CCCN3c3nc(-c4cc(Cl)cc(Cl)c4)no3)C2)ccn1` (centres unmarked) [Compound 41], 3.92 µM. The result for `Cc1cc(N2CC3(CCCN(c4onc(-c5cc(Cl)cc(Cl)c5)c4-c4ccoc4)C3)C2)ccn1` [Compound 122, 3-(3,5-dichlorophenyl)-4-(furan-3-yl)-5-(2-(2-methylpyridin-4-yl)-2,6-diazaspiro[3.5]nonan-6-yl)isoxazole] reads 30.6 µM; that for `N#Cc1ccnc(N2CC3(CCCN(c4nc(-c5cc(Cl)cc(Cl)c5)no4)C3)C2)c1` [Compound 197], 2 µM; that for `Cc1cc(N2CCC3(CCN(c4nc(-c5cc(Cl)cc(Cl)c5)no4)CC3)C2)ccn1` [Compound 20], 7.79 µM. `Cc1cc(NCC2CC(C)N(c3nc(-c4cc(Cl)cc(Cl)c4)no3)C2)ccn1` (centres unmarked) [Compound 172] displayed a 50% inhibitory concentration (IC50) of 5.29 µM. For `COc1cc(CN)cc(-c2noc(N3CCN(C)C4(CCN(c5ccnc(C)c5)CC4)C3)n2)c1` [Compound 243, (3-methoxy-5-(5-(1-methyl-9-(2-methylpyridin-4-yl)-1,4,9-triazaspiro[5.5]undecan-4-yl)-1,2,4-oxadiazol-3-yl)phenyl)methanamine] the value was 0.103 µM; for `COc1cc(OC)cc(-c2noc(N3CCCC4(CCN(c5ccncc5OC)CC4)C3)n2)c1` [Compound 237], 7.3 µM. The result for `Cc1cc(N2CCC3C2CCCN3c2nc(-c3cc(Cl)cc(Cl)c3)no2)ccn1` (centres unmarked) [Compound 213] reads 1 µM; that for `COc1ccc(-c2c(-c3cc(Cl)cc(Cl)c3)noc2N2CCCC3(CN(c4ccnc(C)c4)C3)C2)c(OC)c1` [Compound 125], 25.1 µM. For `Cc1cc(N2CC3(CCCN(c4cncc(-c5cc(Cl)cc(Cl)c5)n4)C3)C2)ccn1` [Compound 120] the value was 12.2 µM; for `COc1cc(C(N)=O)cc(-c2noc(N3CCN(C)C4(CCN(c5ccnc(C)c5)CC4)C3)n2)c1` [Compound 246, 3-methoxy-5-(5-(1-methyl-9-(2-methylpyridin-4-yl)-1,4,9-triazaspiro[5.5]undecan-4-yl)-1,2,4-oxadiazol-3-yl)benzamide], 0.083 µM. `Cc1cc(N2CCC3(CC2)CC3Nc2nc(-c3cc(Cl)cc(Cl)c3)no2)ccn1` (centres unmarked) [Compound 80] yielded an IC50 of 2.83 µM. The result for `OCc1ncc(N2CC3(CCCN(c4nc(-c5cc(Cl)cc(Cl)c5)no4)C3)C2)cn1` [Compound 200] reads 19 µM. Regarding `Cc1cc(N2CCC3(CC2)CC3Nc2nc(-c3cc(Cl)cc(Cl)c3)no2)ccn1` (centres unmarked) [Compound 34], inhibition was half-maximal at 2.2 µM (IC50). For `COc1cc(OC)cc(-c2noc(N3CCC(O)C4(CCN(c5ccnc(C)c5)CC4)C3)n2)c1` (centres unmarked) [Compound 186] the value was 0.217 µM. The result for `COc1cccc(-c2noc(N3CC4(CCC3=O)CCN(c3ccnc(C)c3)CC4)n2)c1` [Compound 153, 2-(3-(3-methoxyphenyl)-1,2,4-oxadiazol-5-yl)-9-(2-methylpyridin-4-yl)-2,9-diazaspiro[5.5]undecan-3-one] reads 44.8 µM; that for `Cc1cc(NC2CCCC(Nc3nc(-c4cc(Cl)cc(Cl)c4)no3)C2)ccn1` (centres unmarked) [Compound 30], 28.2 µM; that for `Cc1cc(NC2CCCC(Nc3nc(-c4cc(Cl)cc(Cl)c4)no3)CC2)ccn1` (centres unmarked) [Compound 7], 4.85 µM. The result for `Cc1cc(N2CCC(Nc3nc(-c4cc(Cl)cc(Cl)c4)no3)CC2)ccn1` [Compound 225] reads not below 50 µM; that for `Cc1cc(N2CCC3(CCCN(c4noc(-c5cc(OC(F)F)cc(OC(F)F)c5)n4)C3)CC2)ccn1` [Compound 92], 0.069 µM. `CCC1(CNc2ccnc(C)c2)CCN(c2nc(-c3cc(Cl)cc(Cl)c3)no2)C1` (centres unmarked) [Compound 23]: the IC50 came out at 17.8 µM. For `Cc1cc(N2CCC3CN(c4nc(-c5cc(Cl)cc(Cl)c5)no4)CC3C2)ccn1` (centres unmarked) [Compound 219] the value was 4.3 µM; for `Cc1cc(NC2CCCN(c3nc(-c4cc(Cl)cc(Cl)c4)no3)CC2)ccn1` (centres unmarked) [Compound 74], 1.13 µM; for `Cc1cc(N2CC3(CCCN(CC(C)C(=O)c4cc(Cl)cc(Cl)c4)C3)C2)ccn1` (centres unmarked) [Compound 127, 1-(3,5-dichlorophenyl)-2-methyl-3-(2-(2-methylpyridin-4-yl)-2,6-diazaspiro[3.5]nonan-6-yl)propan-1-one], 26.9 µM. As for `Cc1cc(N2CC3CCC(Nc4nc(-c5cc(Cl)cc(Cl)c5)no4)CC3C2)ccn1` (centres unmarked) [Compound 70], the half-maximal inhibitory concentration (IC50) came to 6.9 µM. For `COc1cc(OC(F)(F)F)cc(-c2nc(N3CCCC4(CCN(c5ccnc(C)c5)CC4)C3)no2)c1` [Compound 91, 5-(3-methoxy-5-(trifluoromethoxy)phenyl)-3-(9-(2-methylpyridin-4-yl)-2,9-diazaspiro[5.5]undecan-2-yl)-1,2,4-oxadiazole] the value was 0.15 µM.
